Results taken from US20230073007A1, “SWITCHING BINDER, PREPARATION METHOD THEREFOR, AND PHARMACEUTICAL COMPOSITION, ASSAY KIT, AND ANTIGEN AND ANTIBODY ASSAY METHOD, EACH USING SAME” (OPTOLANE TECHNOLOGIES INC., priority 2019, published 2023).

Assays:
[1] = tested on: anti-HRP antibody, anti-hCG antibody, anti-CRP antibody, anti-HBsAg antibody; experiment: One-step immunoassay on solid support, release of switching binder on target antigen binding (FIGS. 8A to 8D); design: species or system rabbit, mouse, goat; conditions: after treatment with target antigen (HRP, hCG, CRP, HBsAg); 10 or 20 μM switching binder; fluorescence
Procedure: With reference to FIG. 8A, anti-HRP antibody was treated and fixed overnight on a solid support at a concentration of 1 μg/ml, and the switching binder 100 of SEQ ID NOs. 1 to 4 were each treated at a concentration of 10 μM (100 μl/well) for 2 hours. At this time, after measuring the fluorescence of the bottom, the antigen HRP as an analyte for an IgG antibody of rabbit was treated at a concentration of 10 μg/ml for 1 hour. With reference to FIG. 8B, anti-HCG antibody was treated and fixed overnight on a solid support at a concentration of 1 μg/ml, and the switching binder 100 of SEQ ID NOs. 1 to 4 were each treated at a concentration of 20 μM (100 μl/well) for 2 hours. At this time, after measuring the fluorescence of the bottom, the antigen HCG as an analyte for an IgG antibody of a mouse was treated at a concentration of 100 μg/ml for 2 hours.
With reference to FIG. 8C, anti-CRP antibody was treated and fixed overnight on a solid support at a concentration of 1 μg/ml, and the switching binder 100 of SEQ ID NOs. 1 to 4 were each treated at a concentration of 20 μM (100 μl/well) for 2 hours. At this time, after measuring the fluorescence of the bottom (A), the antigen […] as an analyte for an IgG antibody of rabbit was treated at a concentration of 10 μg/ml for 1 hour. […] At this time, after measuring the fluorescence of the bottom (A), the antigen HBsAg as an analyte for an IgG antibody of a goat was treated at a concentration of 10 μg/ml for 1 hour.
Referring to FIGS. 8A to 8D, the switching binder 100 was tested using the switching binder of SEQ ID NOs. […] The labeling reaction may be a fluorescence reaction. […]
Referring to FIGS. 8A to 8D, it can be seen that the remaining amount (B) of the switching binder 120 bound to the framework region (FR) was reduced compared to the amount (A) of the switching binder 110 bound to the antibody 10 in all of the switching binder of SEQ ID NO. […] In addition, it can be seen that the amount (C) of the switching binder 130 separated from the framework region (FR) is measured. […]
This is because the amount (A) of the switching binder 110 bound to the antibody 10 is the intensity of fluorescence observed on the surface of the support 30, but the amount (C) of the switching binder 130 separated from the framework region (FR) is the intensity of fluorescence observed in the solution phase. […] According to an embodiment of the present disclosure, as described above, it is possible to quantify the target antigen 20 by the difference between the amount of the switching binder 110 bound to the antibody 10 measured in the pretreatment step (S100) and the amount of the switching binder 120 in the remaining amount bound to the framework region (FR) in the assay step (S300). […]

[2] = tested on: anti-influenza B antibody; experiment: Bead-based antibody binding one-step immunoassay (FIGS. 9A and 9B); conditions: influenza B versus CRP at 10 ng/mL; separated and remaining switching binder quantified
[3] = tested on: switching binder of SEQ ID NO. 1 (H1) / switching binder of SEQ ID NO. 4 (L2); experiment: FRET test of mutual binding between switching binders H1 and L2 (FIG. 6E)
Source text: 1 (H1) and the switching binder of SEQ ID NO. 4 […]. Through this, it can be confirmed that the switching binder of SEQ ID NO. 1 (H1) can interact with the LBR region of the light chain (VL), and the switching binder of SEQ ID NO. 4 (L2) can interact with the HBR region of the heavy chain (VH). Through this property, the switching binder 100 binds to the framework region (FR), and thus the same effect as the interaction between the framework regions (FR) can be obtained.

anti-HRP antibody / HRP = experiment: Antigen-binding coefficient of the antibody in solution measured via isolated switching binder (FIGS. 10A to 10D); conditions: target antigen HRP, anti-HRP antibody not immobilized; calculated from amount of isolated switching binder; read-out: antigen-binding coefficient (Kd) of the antibody in solution, measured using the switching binder
Source text: The pretreatment step (S100″) may include providing the switching binder 100 to an antibody 10 to obtain a mixed solution containing a first conjugate (b1) of the antibody 10 and the switching binder 100, and the switching binder 100 not bound to the antibody 10 (S110); and removing the switching binder 100 not bound to the antibody 10 from the mixed solution (S120). For example, the mixed solution passes through a desalting column to remove the unbound switching binder passing through the desalting column […], and only the first conjugate (b1) passing through the desalting column later can be obtained. The above-described method is exemplary, and various known techniques for separating the first conjugate and the switching binder 100 may be referred to.
Then, as the step of providing an analyte, in the antigen processing step (S200″), the step of separating the first conjugate (b1) from the framework regions (FR, FR) by binding the target antigen 20 to the antibody 10 may be performed. […]
Then, the assay step (S300″) may further include the steps of separating the second conjugate (b2) of the antibody 10 to which the switching binder 130 separated from the antibody 10 and the target antigen 20 are bound (S310); and quantifying the separated switching binder 130 (S320). […] Thereafter, only the separated switching binder 130 may be selectively obtained and quantified through a labeling reaction. At this time, as the concentration of the target antigen 20 increases, the amount of the switching binder 130 separated from the second conjugate (b2) increases, thereby increasing the fluorescence amount of the solution.
In an embodiment, in the assay step (S300″), a test kit that can measure the amount of the switching binder 130 separated according to the increase in the concentration of the target antigen 20 and measure the binding strength of the target antigen 20 to the antibody 10 can be provided. In order to measure the binding strength, the antigen-binding coefficient (Kd) of the antibody 10 may be measured. […]

[4] = tested on: switching binder of SEQ ID NO. 2 (H2) / switching binder of SEQ ID NO. 3 (L1); experiment: FRET test of mutual binding between switching binders H2 and L1 (FIG. 5E)
Source text: 2 (H2) and the switching binder of SEQ ID NO. 3 (L1). Accordingly, it can be confirmed that the switching binder of SEQ ID NO. 2 […] can self-bind and interact with the LAR region of the light chain (VL), and the switching binder of SEQ ID NO. 3 (L1) can self-bind and interact with the HAR region of the heavy chain (VH). Through this, the switching binder 100 having an amino acid sequence extracted from the heavy chain (VH) can bind to the antigen-binding portion 15 including the framework region (FR) of the light chain (VL), and the switching binder 100 having an amino acid sequence extracted from the light chain (VL) can bind to the antigen-binding portion 15 including the framework region (FR) of the heavy chain (VH).

anti-HRP antibody = experiment: SPR analysis of switching binder binding to immobilized antibody (FIG. 7B); conditions: 10 and 20 μM peptide
Source text: Referring to FIG. 7B, in an embodiment, a result of a surface plasmon resonance (SPR) analysis may be confirmed. Surface Plasmon Resonance (SPR) uses a phenomenon that when a material binds to the surface of a metal thin film such as gold, the refractive index of the metal surface changes. When the light is irradiated, the concentration of the material bound to the metal surface can be measured by examining the resonance angle at which the SPR phenomenon occurs among the reflected light.
Specifically, in order to confirm the SPR signal result, the gold surface was treated overnight with 1 mM mercaptoundecanoic acid (MUA) and surface-modified prior to immobilization of the antibody 10. Carbodiimide/N-Hydroxysuccinimide (EDC/NHS, 0.4 M/0.1 M) was mixed in a 1:1 ratio and treated for 10 minutes to activate functional groups. […] The SPR signal can be measured as an average value by repeating the routine of measuring the SPR signal for 3 minutes while the solution is stopped after flowing 1% Tween-20 washing solution for 1 minute three times.
However, the embodiment is not limited to the embodiment of the present disclosure and may include any method capable of measuring the binding strength of the switching binder 100. […] As a result of peptide treatment at a low concentration of 10 μM, shown in the graph on the left (B1), the SPR signal was calculated as the peptide of SEQ ID NO. […]

Sequence	remaining amount (B) of switching binder bound to framework region compared to amount (A) bound to antibody [1]	bead-based one-step immunoassay feasibility [2]	FRET mutual binding between H1 and L2 [3]	Kd (anti-HRP antibody / HRP) [µM]	FRET mutual binding between H2 and L1 [4]	binding to the antibody by SPR (anti-HRP antibody)
SYWIHWVKQRPGQGLEWIGE [H1, SYWIHWVKQRPGQGLEWIGE]	reduced	possible	mutual binding	–	–	–
TYLEWYPQKPGQSPKLLIYK [L1, TYLEWYPQKPGQSPKLLIYK]	reduced	possible	–	0.89	mutual binding	–
VYYCAREPTGTGIYFDVWGK [H2, VYYCAREPTGTGIYFDVWGK]	reduced	–	–	2.9	mutual binding	–
VYYCFQGSHVPFTK [L2, V-Y-Y-C-F-Q-G-S-H-V-P-F-T-K]	reduced	–	mutual binding	1.2	–	binds the most
